Four molecules from ChEMBL document CHEMBL1201862, “PubChem BioAssay data set” (2004) can be followed below.

Holding throughout (assay type): functional
Test [1] deals with T1, Neuropeptides B/W receptor type 1 (Homo sapiens, UniProt P48145).
T1 sequence (P48145 whole entry): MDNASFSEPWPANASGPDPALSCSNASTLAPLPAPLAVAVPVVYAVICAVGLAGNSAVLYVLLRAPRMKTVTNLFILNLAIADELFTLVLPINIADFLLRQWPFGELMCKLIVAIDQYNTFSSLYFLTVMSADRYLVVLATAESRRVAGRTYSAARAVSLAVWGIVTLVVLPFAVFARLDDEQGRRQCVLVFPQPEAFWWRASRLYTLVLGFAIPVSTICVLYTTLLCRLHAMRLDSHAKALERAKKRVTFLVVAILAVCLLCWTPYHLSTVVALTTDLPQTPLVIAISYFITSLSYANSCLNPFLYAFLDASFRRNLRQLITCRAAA
Nature of the test: human NPBW1 receptor blockade, IC50 – cell-based, fluorescence, dose response, set 5, late-stage follow-up (AID 588566).

The target of test [2] is T2, Melanin-concentrating hormone receptor 1 (Homo sapiens, UniProt Q99705). The test can be described thus: Late-stage fluorescence-based counterscreen for antagonists of the G-protein coupled receptor 7 (GPR7): cell-based dose response assay to identify antagonists of the melanin-concentrating hormone receptor 1 (MCHR1) Set 5.
Test [3] has as its target Protein kinase C theta type (Homo sapiens, UniProt Q04759). The test can be described thus: Navigating the Kinome. Panel member name: PRKCQ.
In test [4] the target is Dual specificity protein kinase CLK2 (Homo sapiens, UniProt P49760).
In test [5] the target is Dual specificity mitogen-activated protein kinase kinase 1 (Homo sapiens, UniProt Q02750). Nature of the test: Navigating the Kinome. Panel member name: MAP2K1.
Test [6] deals with ALK tyrosine kinase receptor (Homo sapiens, UniProt Q9UM73).
In test [7] the target is Tyrosine-protein kinase receptor TYRO3 (Homo sapiens, UniProt Q06418).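 Note: TYRO3 value obtained as one member of a kinome-wide profiling panel.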
The target in test [8] is Serine/threonine-protein kinase D3 (Homo sapiens, UniProt O94806).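 Note: determined within a kinase panel screen, with PRKCN as the panel member.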
Test [9] concerns the target Death-associated protein kinase 3 (Homo sapiens, UniProt O43293).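 Note: measured as one member of a kinome-wide profiling panel.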
The next test has as its target Activin receptor type-1 (Homo sapiens, UniProt Q04771). Nature of the test: Navigating the Kinome. Panel member name: ACVR1.
A further test addresses Aurora kinase A (Homo sapiens, UniProt O14965).
Test [10] deals with Fibroblast growth factor receptor 1 (Homo sapiens, UniProt P11362).
Test [11] deals with Casein kinase I isoform alpha (Homo sapiens, UniProt P48729).
For test [12], the target named is Glycogen synthase kinase-3 alpha (Homo sapiens, UniProt P49840).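 Note: GSK3A result taken from a broad kinome-wide kinase panel.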
Test [13] deals with Mitogen-activated protein kinase kinase kinase kinase 2 (Homo sapiens, UniProt Q12851).
Test [14] deals with Hepatocyte growth factor receptor (Homo sapiens, UniProt P08581).
The target of a further test is Activated CDC42 kinase 1 (Homo sapiens, UniProt Q07912). Nature of the test: Navigating the Kinome. Panel member name: ACK1.
In test [15] the target is Platelet-derived growth factor receptor beta (Homo sapiens, UniProt P09619).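 Note: value comes from a kinome panel, with PDGFRB tested as one panel member.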
Test [16] concerns the target Tyrosine-protein kinase ABL1 (Homo sapiens, UniProt P00519).
For test [17], the target named is Vascular endothelial growth factor receptor 2 (Homo sapiens, UniProt P35968).
Test [18] addresses Cyclin-dependent kinase 5 (Homo sapiens, UniProt Q00535).
Test [19] addresses Dual specificity tyrosine-phosphorylation-regulated kinase 1B (Homo sapiens, UniProt Q9Y463). Nature of the test: Navigating the Kinome. Panel member name: DYRK1B.
The target in test [20] is cAMP-dependent protein kinase catalytic subunit PRKX (Homo sapiens, UniProt P51817).
The target in another test is Focal adhesion kinase 1 (Homo sapiens, UniProt Q05397).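 Note: measured as one member of a kinome panel.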
Test [21] deals with Leucine-rich repeat serine/threonine-protein kinase 2 (Homo sapiens, UniProt Q5S007).
In test [22] the target is Rho-associated protein kinase 1 (Homo sapiens, UniProt Q13464).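 Note: measured within a broad kinome-wide panel profiling many kinases.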
The target in test [23] is Cyclin-dependent kinase 7 (Homo sapiens, UniProt P50613).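 Note: value comes from a kinome-wide kinase profiling panel in which CDK7 is one member.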
Test [24] addresses Vascular endothelial growth factor receptor 1 (Homo sapiens, UniProt P17948).
The target in test [25] is Glycogen synthase kinase-3 beta (Homo sapiens, UniProt P49841).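 Note: value comes from a broad kinome profiling panel, with GSK3B as the panel member.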
The target in test [26] is Cyclin-dependent kinase 9 (Homo sapiens, UniProt P50750).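 Note: value from the CDK9 entry of a kinome-spanning kinase panel.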
Test [27] concerns the target cAMP-dependent protein kinase catalytic subunit alpha (Homo sapiens, UniProt P17612).
Test [28] concerns the target Dual specificity protein kinase CLK4 (Homo sapiens, UniProt Q9HAZ1).
In test [29] the target is Mitogen-activated protein kinase kinase kinase kinase 4 (Homo sapiens, UniProt O95819).
Test [30] deals with Macrophage-stimulating protein receptor (Homo sapiens, UniProt Q04912). Nature of the test: Navigating the Kinome. Panel member name: MST1R.
Test [31] has as its target Macrophage colony-stimulating factor 1 receptor (Homo sapiens, UniProt P07333).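 Note: value comes from the Navigating the Kinome screening panel, CSF1R member.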
For test [32], the target named is Dual specificity mitogen-activated protein kinase kinase 2 (Homo sapiens, UniProt P36507). Nature of the test: Navigating the Kinome. Panel member name: MAP2K2.
Test [33] has as its target Dual specificity tyrosine-phosphorylation-regulated kinase 1A (Homo sapiens, UniProt Q13627).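 Note: measured against DYRK1A as one member of a broad kinome profiling panel.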
Test [34] has as its target Calcium/calmodulin-dependent protein kinase type II subunit alpha (Homo sapiens, UniProt Q9UQM7). Nature of the test: Navigating the Kinome. Panel member name: CAMK2A.
The target of test [35] is Leukocyte tyrosine kinase receptor (Homo sapiens, UniProt P29376). Nature of the test: Navigating the Kinome. Panel member name: LTK.
Test [36] concerns the target T2, Melanin-concentrating hormone receptor 1. The test can be described thus: Late-stage fluorescence-based counterscreen for antagonists of the G-protein coupled receptor 7 (GPR7): cell-based dose response assay to identify antagonists of the melanin-concentrating hormone receptor 1 (MCHR1) Set 6.
Test [37] concerns the target T1, Neuropeptides B/W receptor type 1. Nature of the test: human NPBW1 receptor blockade, IC50 – cell-based, fluorescence, dose response, set 6, late-stage follow-up (AID 588583).
Test [38] deals with T3, Apoptotic protease-activating factor 1 (Homo sapiens, UniProt O14727).
T3 sequence (O14727 whole entry): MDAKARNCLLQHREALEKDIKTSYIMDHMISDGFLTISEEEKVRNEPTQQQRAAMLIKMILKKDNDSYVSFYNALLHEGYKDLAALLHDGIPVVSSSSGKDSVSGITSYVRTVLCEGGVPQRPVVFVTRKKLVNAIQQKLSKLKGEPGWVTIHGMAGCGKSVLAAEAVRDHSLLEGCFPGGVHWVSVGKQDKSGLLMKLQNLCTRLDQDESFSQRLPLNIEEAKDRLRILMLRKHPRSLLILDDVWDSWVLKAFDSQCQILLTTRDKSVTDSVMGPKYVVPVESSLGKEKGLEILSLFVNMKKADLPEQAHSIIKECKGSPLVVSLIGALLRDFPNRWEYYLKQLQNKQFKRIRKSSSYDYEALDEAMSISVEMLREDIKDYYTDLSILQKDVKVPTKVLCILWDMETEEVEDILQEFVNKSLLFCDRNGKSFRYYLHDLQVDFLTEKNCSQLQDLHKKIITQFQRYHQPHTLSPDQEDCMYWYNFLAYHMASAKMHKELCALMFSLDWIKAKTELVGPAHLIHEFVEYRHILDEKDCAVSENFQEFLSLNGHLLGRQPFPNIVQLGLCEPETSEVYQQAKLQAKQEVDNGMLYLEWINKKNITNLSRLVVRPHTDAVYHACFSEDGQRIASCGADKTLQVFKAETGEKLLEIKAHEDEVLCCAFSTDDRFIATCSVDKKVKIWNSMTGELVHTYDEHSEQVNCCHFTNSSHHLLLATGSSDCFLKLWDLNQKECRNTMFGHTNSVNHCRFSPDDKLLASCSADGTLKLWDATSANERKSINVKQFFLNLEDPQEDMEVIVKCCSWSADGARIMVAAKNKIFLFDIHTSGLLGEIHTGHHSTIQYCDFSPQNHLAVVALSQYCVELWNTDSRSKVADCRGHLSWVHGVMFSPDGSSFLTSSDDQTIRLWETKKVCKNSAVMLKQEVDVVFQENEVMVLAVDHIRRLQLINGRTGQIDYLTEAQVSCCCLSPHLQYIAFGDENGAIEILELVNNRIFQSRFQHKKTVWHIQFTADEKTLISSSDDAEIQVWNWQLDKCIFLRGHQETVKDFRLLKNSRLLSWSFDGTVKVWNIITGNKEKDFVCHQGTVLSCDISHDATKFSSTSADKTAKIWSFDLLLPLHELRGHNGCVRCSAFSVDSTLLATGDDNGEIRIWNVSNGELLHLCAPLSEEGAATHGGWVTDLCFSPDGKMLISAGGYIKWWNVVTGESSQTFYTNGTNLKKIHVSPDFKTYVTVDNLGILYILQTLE
The test can be described thus: SAR analysis of small molecule inhibitors of Apaf-1 in a Fluorescent assay. Conditions: read-out: IC50_Mean.

Activity calls are given as the source filed them.

T2 sequence (Q99705 whole entry): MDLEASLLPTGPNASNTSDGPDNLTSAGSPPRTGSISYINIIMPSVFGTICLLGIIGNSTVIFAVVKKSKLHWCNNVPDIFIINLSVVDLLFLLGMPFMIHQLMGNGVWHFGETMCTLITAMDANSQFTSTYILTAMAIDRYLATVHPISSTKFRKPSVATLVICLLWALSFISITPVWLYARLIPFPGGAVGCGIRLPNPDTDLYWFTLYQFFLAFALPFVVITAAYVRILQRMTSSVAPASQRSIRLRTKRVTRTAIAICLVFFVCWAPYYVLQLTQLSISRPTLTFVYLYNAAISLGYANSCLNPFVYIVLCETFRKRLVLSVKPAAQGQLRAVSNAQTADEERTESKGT
Sequence of Tyrosine-protein kinase ABL1 (P00519 whole entry): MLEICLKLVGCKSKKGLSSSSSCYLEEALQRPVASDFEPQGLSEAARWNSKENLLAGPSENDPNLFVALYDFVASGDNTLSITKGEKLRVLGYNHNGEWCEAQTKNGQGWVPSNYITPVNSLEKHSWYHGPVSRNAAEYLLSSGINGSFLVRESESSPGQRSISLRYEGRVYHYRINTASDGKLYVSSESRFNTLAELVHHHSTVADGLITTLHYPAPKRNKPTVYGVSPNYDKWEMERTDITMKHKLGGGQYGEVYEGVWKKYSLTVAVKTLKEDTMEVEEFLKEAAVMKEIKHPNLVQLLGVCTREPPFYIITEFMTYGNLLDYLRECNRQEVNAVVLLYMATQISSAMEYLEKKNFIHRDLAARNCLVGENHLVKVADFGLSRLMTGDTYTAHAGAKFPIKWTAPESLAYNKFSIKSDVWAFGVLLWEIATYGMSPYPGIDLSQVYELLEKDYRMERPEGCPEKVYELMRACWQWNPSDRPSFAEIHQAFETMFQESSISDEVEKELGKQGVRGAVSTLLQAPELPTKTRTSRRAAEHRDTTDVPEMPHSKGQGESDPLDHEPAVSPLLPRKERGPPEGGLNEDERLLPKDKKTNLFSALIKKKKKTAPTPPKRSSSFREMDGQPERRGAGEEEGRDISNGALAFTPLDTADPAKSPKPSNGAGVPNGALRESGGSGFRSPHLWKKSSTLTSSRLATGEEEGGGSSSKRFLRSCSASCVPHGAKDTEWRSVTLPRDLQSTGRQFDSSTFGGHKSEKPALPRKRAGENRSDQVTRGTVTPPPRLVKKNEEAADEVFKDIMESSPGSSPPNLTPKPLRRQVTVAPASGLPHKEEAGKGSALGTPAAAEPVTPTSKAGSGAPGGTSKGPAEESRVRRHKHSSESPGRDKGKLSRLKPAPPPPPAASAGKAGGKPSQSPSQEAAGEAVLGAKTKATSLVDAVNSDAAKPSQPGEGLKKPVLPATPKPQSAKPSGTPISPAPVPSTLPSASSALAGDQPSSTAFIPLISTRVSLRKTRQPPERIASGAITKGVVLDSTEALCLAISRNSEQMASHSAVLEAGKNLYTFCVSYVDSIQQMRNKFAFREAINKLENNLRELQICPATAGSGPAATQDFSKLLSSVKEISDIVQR
Sequence of Tyrosine-protein kinase receptor TYRO3 (Q06418 whole entry): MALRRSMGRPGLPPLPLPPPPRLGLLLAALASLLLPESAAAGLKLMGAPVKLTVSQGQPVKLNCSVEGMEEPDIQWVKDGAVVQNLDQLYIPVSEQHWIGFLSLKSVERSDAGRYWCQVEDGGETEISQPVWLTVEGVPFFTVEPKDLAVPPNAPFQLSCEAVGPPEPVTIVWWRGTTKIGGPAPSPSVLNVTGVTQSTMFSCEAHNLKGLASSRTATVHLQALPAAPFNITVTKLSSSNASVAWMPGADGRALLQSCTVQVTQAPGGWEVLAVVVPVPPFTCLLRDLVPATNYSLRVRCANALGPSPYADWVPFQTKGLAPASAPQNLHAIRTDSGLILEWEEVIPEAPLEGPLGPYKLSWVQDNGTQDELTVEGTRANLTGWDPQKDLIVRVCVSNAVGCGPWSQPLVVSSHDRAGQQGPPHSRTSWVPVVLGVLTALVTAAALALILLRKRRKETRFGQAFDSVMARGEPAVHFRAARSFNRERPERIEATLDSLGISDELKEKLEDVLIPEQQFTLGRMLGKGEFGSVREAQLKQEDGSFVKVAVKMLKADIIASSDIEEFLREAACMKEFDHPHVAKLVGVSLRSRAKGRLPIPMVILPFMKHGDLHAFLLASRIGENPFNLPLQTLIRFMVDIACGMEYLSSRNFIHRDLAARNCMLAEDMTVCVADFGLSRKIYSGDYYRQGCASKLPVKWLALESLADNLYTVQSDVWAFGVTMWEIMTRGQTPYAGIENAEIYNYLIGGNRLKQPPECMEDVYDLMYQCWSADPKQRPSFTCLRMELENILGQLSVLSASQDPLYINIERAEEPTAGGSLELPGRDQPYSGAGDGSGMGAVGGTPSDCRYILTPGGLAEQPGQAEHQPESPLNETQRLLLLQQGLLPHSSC
Sequence of Glycogen synthase kinase-3 beta (P49841 whole entry): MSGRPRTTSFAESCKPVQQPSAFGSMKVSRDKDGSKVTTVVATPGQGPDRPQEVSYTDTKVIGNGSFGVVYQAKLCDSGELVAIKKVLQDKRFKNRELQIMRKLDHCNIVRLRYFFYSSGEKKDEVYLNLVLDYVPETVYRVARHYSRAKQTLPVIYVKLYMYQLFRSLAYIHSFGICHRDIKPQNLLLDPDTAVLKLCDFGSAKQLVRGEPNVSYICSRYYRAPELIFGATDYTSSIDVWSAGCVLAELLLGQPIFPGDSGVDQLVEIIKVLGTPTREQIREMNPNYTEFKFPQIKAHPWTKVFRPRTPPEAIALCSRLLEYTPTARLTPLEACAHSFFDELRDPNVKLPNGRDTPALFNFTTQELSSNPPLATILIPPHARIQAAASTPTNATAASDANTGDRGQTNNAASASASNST
Sequence of Cyclin-dependent kinase 9 (P50750 whole entry): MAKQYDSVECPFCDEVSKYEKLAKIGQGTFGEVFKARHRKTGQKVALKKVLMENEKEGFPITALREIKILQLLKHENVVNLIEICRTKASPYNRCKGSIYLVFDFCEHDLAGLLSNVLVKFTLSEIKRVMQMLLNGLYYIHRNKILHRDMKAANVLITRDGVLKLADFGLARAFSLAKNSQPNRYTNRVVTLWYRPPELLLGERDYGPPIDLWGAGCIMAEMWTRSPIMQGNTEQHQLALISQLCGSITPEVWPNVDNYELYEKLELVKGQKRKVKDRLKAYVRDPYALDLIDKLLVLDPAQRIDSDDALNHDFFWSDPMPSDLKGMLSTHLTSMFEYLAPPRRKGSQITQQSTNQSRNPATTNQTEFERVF
Sequence of Calcium/calmodulin-dependent protein kinase type II subunit alpha (Q9UQM7 whole entry): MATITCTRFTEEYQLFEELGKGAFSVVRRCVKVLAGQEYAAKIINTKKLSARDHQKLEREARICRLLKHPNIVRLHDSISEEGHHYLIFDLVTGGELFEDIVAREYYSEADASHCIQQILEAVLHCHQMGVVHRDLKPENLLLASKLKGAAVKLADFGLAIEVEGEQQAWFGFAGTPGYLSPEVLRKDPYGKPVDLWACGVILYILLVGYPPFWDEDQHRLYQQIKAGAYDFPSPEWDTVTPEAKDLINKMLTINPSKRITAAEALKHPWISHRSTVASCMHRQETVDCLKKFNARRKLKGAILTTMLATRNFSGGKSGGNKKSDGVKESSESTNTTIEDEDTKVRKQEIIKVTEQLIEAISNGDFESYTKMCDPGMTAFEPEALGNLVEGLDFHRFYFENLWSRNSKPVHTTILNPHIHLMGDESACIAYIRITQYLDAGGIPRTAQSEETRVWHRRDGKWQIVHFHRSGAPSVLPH
Sequence of Vascular endothelial growth factor receptor 2 (P35968 whole entry): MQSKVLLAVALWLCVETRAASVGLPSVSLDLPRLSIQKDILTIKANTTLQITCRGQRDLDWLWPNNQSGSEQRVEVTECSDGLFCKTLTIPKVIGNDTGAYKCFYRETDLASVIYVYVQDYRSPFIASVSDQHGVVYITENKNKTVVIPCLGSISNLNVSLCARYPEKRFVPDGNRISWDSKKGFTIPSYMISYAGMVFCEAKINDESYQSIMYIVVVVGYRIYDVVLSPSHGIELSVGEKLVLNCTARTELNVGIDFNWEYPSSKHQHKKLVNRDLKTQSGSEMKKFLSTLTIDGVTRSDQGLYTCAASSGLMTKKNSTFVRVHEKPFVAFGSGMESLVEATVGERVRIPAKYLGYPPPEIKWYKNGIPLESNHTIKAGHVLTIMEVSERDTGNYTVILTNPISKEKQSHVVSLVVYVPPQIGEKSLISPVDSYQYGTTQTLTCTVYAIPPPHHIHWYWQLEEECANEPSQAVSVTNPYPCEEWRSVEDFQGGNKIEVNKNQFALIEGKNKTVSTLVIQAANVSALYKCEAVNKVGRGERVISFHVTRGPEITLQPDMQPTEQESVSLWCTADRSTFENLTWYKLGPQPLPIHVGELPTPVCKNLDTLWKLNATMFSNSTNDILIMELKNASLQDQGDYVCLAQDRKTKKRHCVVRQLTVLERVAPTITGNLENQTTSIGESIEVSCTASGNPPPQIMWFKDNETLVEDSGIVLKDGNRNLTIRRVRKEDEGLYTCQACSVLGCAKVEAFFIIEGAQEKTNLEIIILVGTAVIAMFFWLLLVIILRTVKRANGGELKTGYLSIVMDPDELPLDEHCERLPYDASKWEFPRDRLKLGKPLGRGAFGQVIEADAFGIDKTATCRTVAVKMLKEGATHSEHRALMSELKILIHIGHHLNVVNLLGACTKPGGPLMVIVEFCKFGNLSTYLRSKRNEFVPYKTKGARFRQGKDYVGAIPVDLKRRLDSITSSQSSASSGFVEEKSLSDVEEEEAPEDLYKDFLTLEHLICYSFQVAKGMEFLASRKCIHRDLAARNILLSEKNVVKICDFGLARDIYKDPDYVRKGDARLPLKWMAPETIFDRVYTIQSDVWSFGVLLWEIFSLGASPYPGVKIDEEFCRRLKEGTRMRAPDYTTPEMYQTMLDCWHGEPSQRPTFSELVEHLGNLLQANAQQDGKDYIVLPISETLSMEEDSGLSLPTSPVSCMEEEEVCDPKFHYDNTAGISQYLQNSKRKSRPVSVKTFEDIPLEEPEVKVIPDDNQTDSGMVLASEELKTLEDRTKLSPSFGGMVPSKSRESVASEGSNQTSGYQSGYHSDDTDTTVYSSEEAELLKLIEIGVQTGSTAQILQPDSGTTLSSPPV

`N#CC(c1cccnc1)c1cnn(Cc2cccc3ccccc23)c(=O)c1Cl` (configuration not stated): the IC50 is 1.18 µM (active) in test [1] and 3.67 µM (active) in test [2].

`Nc1n[nH]c2cccc(-c3ccc(F)cc3)c12`: the Ki is 20 µM (active) in [3]; 2 µM (active) in test [4]; 0.251 µM (active) in [5]; 63.1 µM (active) in test [6]; 39.8 µM (active) in test [7]; 79.4 µM (active) in test [8]. Further, the Ki in [9] is 39.8 µM (active); on Activin receptor type-1, 1 µM (active); at Aurora kinase A, > 39.8 µM (inactive); in test [10], 63.1 µM (active); in test [11], 7.94 µM (active); in test [12], 20 µM (active). Moreover, the Ki in [13] is 31.6 µM (active); in test [14], 31.6 µM (active); on Activated CDC42 kinase 1 it was 15.8 µM (active); in test [15], 6.31 µM (active); in [16], 15.8 µM (active); in test [17], 12.6 µM (active). Further, the Ki in [18] was 20 µM (active); in test [19], 6.31 µM (active); in [20] it was 0.501 µM (active); on Focal adhesion kinase 1 it was 20 µM (active); in test [21], 1.26 µM (active); in test [22], 0.501 µM (active). Besides, the Ki in test [23] was 20 µM (active); in test [24], 79.4 µM (active); in test [25] it was 20 µM (active); in test [26] it was > 63.1 µM (inactive); in [27], 0.0794 µM (active); in [28], 0.0398 µM (active). The Ki was 20 µM (active) in test [29]; 63.1 µM (active) in test [30]; 7.94 µM (active) in [31]; 1.26 µM (active) in test [32]; 25.1 µM (active) in test [33]; 25.1 µM (active) in test [34]. Besides, the Ki in test [35] is 31.6 µM (active).

`CCC(C#N)(c1ccccc1)c1c(Br)cnn(Cc2cccc3ccccc23)c1=O` (configuration not stated): the IC50 in [36] and in [37] was 8.2 µM (active) throughout.

In the case of `O=C(Nc1ccc2[nH]c(-c3cccs3)nc2c1)c1cccs1`, in test [38], the IC50 was > 100 µM (inactive).
